Measurements published in ChEMBL document CHEMBL1201862, “PubChem BioAssay data set” (2004).
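All cell lines were grown in 96-well plates and treated with compound for 48 hours. Abbreviation: GI50, concentration required for 50% inhibition of growth.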 Activity calls are given as the source filed them. Cut-off read from the data, not from the text of the source: active = GI50 up to about 1.1 µM and inactive = higher. *1 amine or outer side, *2 acyl side, *3 side chain or, on linkers, in order; H or OH if unused. Where a SMILES comes first, the peptide text is derived from it. Bridges are numbered along the chain shown (N, C = ends). Roman numbers before positions name the chains, in order. [ ]: non-standard residue; d: D form. Actinocin(9to1) = Cc1c2oc3c(C)ccc(C(=O)[*:1])c3nc-2c(C(=O)[*:2])c(N)c1=O; NMeV = CN[CH](C(=O)O)C(C)C; Sar = CNCC(=O)O

What was measured:
Experiment in all cases: inhibition of tumour cell growth, NCI panel, 48 h
786-0 = tested on: 786-0
A549 = tested on: A549
BT-549 = tested on: BT-549
EKVX = tested on: EKVX
HCC 2998 = tested on: HCC 2998
HOP-62 = tested on: HOP-62
MOLT-4 = tested on: MOLT-4
NCI/ADR-RES = tested on: NCI/ADR-RES
RXF 393 = tested on: RXF 393
SF-539 = tested on: SF-539
SK-MEL-28 = tested on: SK-MEL-28
SK-MEL-2 = tested on: SK-MEL-2
SK-OV-3 = tested on: SK-OV-3
SN12C = tested on: SN12C
SNB-75 = tested on: SNB-75
SR = tested on: SR
SW-620 = tested on: SW-620
TK-10 = tested on: TK-10
HOP-92 = tested on: HOP-92

Compound	GI50 (786-0)	GI50 (A549)	GI50 (BT-549)	GI50 (EKVX)	GI50 (HCC 2998)	GI50 (HOP-62)	GI50 (MOLT-4)	GI50 (NCI/ADR-RES)	GI50 (RXF 393)	GI50 (SF-539)	GI50 (SK-MEL-28)	GI50 (SK-MEL-2)	GI50 (SK-OV-3)	GI50 (SN12C)	GI50 (SNB-75)	GI50 (SR)	GI50 (SW-620)	GI50 (TK-10)	GI50 (HOP-92)
Cc1c2oc3c(C)ccc(C(=O)NC4C(=O)NC(Cc5ccccc5)C(=O)N5CCCC5C(=O)N(C)CC(=O)N(C)C(C(C)C)C(=O)OC4C)c3nc-2c(C(=O)NC2C(=O)NC(Cc3ccccc3)C(=O)N3CCCC3C(=O)N(C)CC(=O)N(C)C(C(C)C)C(=O)OC2C)c(N)c1=O (stereo not drawn) (I: TFP[Sar][NMeV] / II: TFP[Sar][NMeV]; ester I:1-I:C, II:1-II:C; linker I:N-II:N via Actinocin(9to1); configuration not given here)	< 0.001 µM (active)	< 0.001 µM (active)	0.01 µM (active)	0.136 µM (active)	< 0.001 µM (active)	0.0119 µM (active)	< 0.001 µM (active)	0.439 µM (active)	0.0135 µM (active)	0.123 µM (active)	< 0.001 µM (active)	< 0.001 µM (active)	< 0.001 µM (active)	< 0.001 µM (active)	0.00577 µM (active)	< 0.001 µM (active)	< 0.001 µM (active)	0.021 µM (active)	–
CCCCCCCCCCCCCCCCCCNc1ccn(C2OC(COP(=O)(O)OCC3OC(n4cc(C)c(=O)[nH]c4=O)CC3N=[N+]=[N-])C(O)C2O)c(=O)n1 (stereo not drawn)	29.5 µM (inactive)	52 µM (inactive)	19.7 µM (inactive)	26.3 µM (inactive)	15.1 µM (inactive)	23.2 µM (inactive)	16.4 µM (inactive)	21 µM (inactive)	–	17.8 µM (inactive)	18.6 µM (inactive)	22.8 µM (inactive)	18.9 µM (inactive)	21.7 µM (inactive)	25.8 µM (inactive)	18.4 µM (inactive)	22.5 µM (inactive)	16.8 µM (inactive)	59.6 µM (inactive)
Nc1nc(Cl)c(/N=N/c2ccc(Cl)cc2)c(NCC2(CO)CCC(CCc3ccccc3)C2)n1 (stereo not drawn)	6.32 µM (inactive)	14.1 µM (inactive)	6.81 µM (inactive)	8.79 µM (inactive)	5.97 µM (inactive)	13.7 µM (inactive)	1.29 µM (inactive)	4.56 µM (inactive)	7.8 µM (inactive)	14.2 µM (inactive)	14.2 µM (inactive)	13.6 µM (inactive)	12 µM (inactive)	9.46 µM (inactive)	13.6 µM (inactive)	–	3.92 µM (inactive)	13.8 µM (inactive)	11.1 µM (inactive)
OC1CC(O)c2c(Cl)sc(Cl)c21 (stereo not drawn)	34.4 µM (inactive)	11.7 µM (inactive)	34.6 µM (inactive)	5.21 µM (inactive)	–	21.2 µM (inactive)	51.5 µM (inactive)	43.6 µM (inactive)	< 0.01 µM (active)	> 100 µM (inactive)	29.9 µM (inactive)	19.5 µM (inactive)	27.4 µM (inactive)	46.3 µM (inactive)	7.67 µM (inactive)	> 100 µM (inactive)	44.2 µM (inactive)	36 µM (inactive)	23.4 µM (inactive)
CCN1C[C@]2(COC)[C@H](O)C[C@H](OC)[C@]34C1[C@H]([C@H](OC)[C@H]23)[C@]1(OC(C)=O)[C@H]2[C@@H](OC(=O)c3ccccc3)[C@](O)(C[C@H]24)[C@@H](OC)[C@@H]1O	> 100 µM (inactive)	> 100 µM (inactive)	> 100 µM (inactive)	> 100 µM (inactive)	> 100 µM (inactive)	–	> 10 µM (inactive)	> 100 µM (inactive)	–	> 100 µM (inactive)	> 100 µM (inactive)	> 100 µM (inactive)	> 100 µM (inactive)	> 100 µM (inactive)	31.1 µM (inactive)	> 100 µM (inactive)	> 100 µM (inactive)	> 100 µM (inactive)	> 100 µM (inactive)
CC[C@H](NC(=O)OC(C)(C)C)C(=O)NCP(=O)(OCc1ccc([N+](=O)[O-])cc1)OCc1ccc([N+](=O)[O-])cc1	92.9 µM (inactive)	27.7 µM (inactive)	31.7 µM (inactive)	–	36.2 µM (inactive)	38.4 µM (inactive)	21.5 µM (inactive)	33.1 µM (inactive)	–	31.8 µM (inactive)	28.4 µM (inactive)	50.9 µM (inactive)	21.9 µM (inactive)	29.1 µM (inactive)	38.9 µM (inactive)	26.9 µM (inactive)	40.6 µM (inactive)	30.6 µM (inactive)	31.5 µM (inactive)
Brc1ccc2c(c1)-c1nc3nc4c(cc3cc1CC2)CCc1ccc(Br)cc1-4	> 100 µM (inactive)	> 100 µM (inactive)	> 100 µM (inactive)	> 100 µM (inactive)	> 100 µM (inactive)	> 100 µM (inactive)	> 100 µM (inactive)	> 100 µM (inactive)	> 100 µM (inactive)	> 100 µM (inactive)	> 100 µM (inactive)	> 100 µM (inactive)	> 100 µM (inactive)	> 100 µM (inactive)	> 100 µM (inactive)	–	> 100 µM (inactive)	> 100 µM (inactive)	> 100 µM (inactive)
O=C(NCCN1CCCCC1)c1ccc(Br)cc1	> 100 µM (inactive)	> 100 µM (inactive)	> 100 µM (inactive)	> 100 µM (inactive)	> 100 µM (inactive)	> 100 µM (inactive)	> 100 µM (inactive)	> 100 µM (inactive)	> 100 µM (inactive)	–	> 100 µM (inactive)	> 100 µM (inactive)	> 100 µM (inactive)	> 100 µM (inactive)	54.3 µM (inactive)	> 100 µM (inactive)	> 100 µM (inactive)	> 100 µM (inactive)	> 100 µM (inactive)
COP(=O)(C(/C=C/c1ccccc1)OC(C)=O)[C@@H]1CCCC[C@H]1N(CC(C)(C)C)C(C)=O (stereo partly drawn)	17.3 µM (inactive)	16.8 µM (inactive)	16.8 µM (inactive)	20.7 µM (inactive)	12.6 µM (inactive)	18.2 µM (inactive)	7.93 µM (inactive)	15.1 µM (inactive)	7.29 µM (inactive)	17.9 µM (inactive)	20.4 µM (inactive)	15.4 µM (inactive)	23.1 µM (inactive)	14.8 µM (inactive)	3.94 µM (inactive)	15 µM (inactive)	16.7 µM (inactive)	20.2 µM (inactive)	–
COc1ccc(-c2c(C(=O)Nc3ccccc3)c(-c3ccccc3)n(C3OC(CO)C(O)C(O)C3O)c(=S)c2C#N)cc1 (stereo not drawn)	> 100 µM (inactive)	> 100 µM (inactive)	0.719 µM (active)	> 100 µM (inactive)	> 100 µM (inactive)	> 100 µM (inactive)	> 100 µM (inactive)	> 100 µM (inactive)	> 100 µM (inactive)	–	> 100 µM (inactive)	–	–	> 100 µM (inactive)	–	> 100 µM (inactive)	> 100 µM (inactive)	–	> 100 µM (inactive)
C[N+](C)([O-])Cc1cc(-c2ccccc2)ccc1O	> 100 µM (inactive)	> 100 µM (inactive)	> 100 µM (inactive)	> 100 µM (inactive)	> 100 µM (inactive)	> 100 µM (inactive)	52.5 µM (inactive)	> 100 µM (inactive)	> 100 µM (inactive)	–	> 100 µM (inactive)	> 100 µM (inactive)	–	> 100 µM (inactive)	> 100 µM (inactive)	49.1 µM (inactive)	> 100 µM (inactive)	> 100 µM (inactive)	> 100 µM (inactive)
NC1=Nc2ccccc2Sc2nc3ccccc3n21	2.23 µM (inactive)	26.7 µM (inactive)	34.3 µM (inactive)	–	–	52.5 µM (inactive)	4.54 µM (inactive)	27 µM (inactive)	19.4 µM (inactive)	21.1 µM (inactive)	–	–	17.1 µM (inactive)	48.2 µM (inactive)	15.6 µM (inactive)	4.49 µM (inactive)	46.1 µM (inactive)	> 100 µM (inactive)	22.7 µM (inactive)
CC(C#N)N(CCc1ccccc1)C(=O)c1ccccc1 (stereo not drawn)	> 100 µM (inactive)	> 100 µM (inactive)	> 100 µM (inactive)	> 100 µM (inactive)	> 100 µM (inactive)	> 100 µM (inactive)	47.6 µM (inactive)	> 100 µM (inactive)	> 100 µM (inactive)	> 100 µM (inactive)	–	> 100 µM (inactive)	> 100 µM (inactive)	> 100 µM (inactive)	27.4 µM (inactive)	> 100 µM (inactive)	> 100 µM (inactive)	> 100 µM (inactive)	–
CCCSc1cc(Cl)c(C)cc1S(=O)(=O)n1ccnc1O	> 100 µM (inactive)	> 100 µM (inactive)	> 100 µM (inactive)	> 100 µM (inactive)	> 100 µM (inactive)	> 100 µM (inactive)	> 100 µM (inactive)	> 100 µM (inactive)	> 100 µM (inactive)	> 100 µM (inactive)	> 100 µM (inactive)	> 100 µM (inactive)	> 100 µM (inactive)	> 100 µM (inactive)	20.1 µM (inactive)	> 100 µM (inactive)	> 100 µM (inactive)	> 100 µM (inactive)	–
COc1cc(OCc2ccc3oc(=O)c(-c4ccccc4)nc3c2)cc(OC)c1OC	> 100 µM (inactive)	> 100 µM (inactive)	> 100 µM (inactive)	–	> 100 µM (inactive)	> 100 µM (inactive)	> 100 µM (inactive)	> 100 µM (inactive)	> 100 µM (inactive)	> 100 µM (inactive)	> 100 µM (inactive)	> 100 µM (inactive)	> 100 µM (inactive)	> 100 µM (inactive)	> 100 µM (inactive)	> 100 µM (inactive)	> 100 µM (inactive)	> 100 µM (inactive)	–
